Laboratory results taken from publication PMC7562955 (Nature Communications, 2020).

Key:
[1] = target: T1, TLR7 (Homo sapiens, UniProt Q9NYK1); experiment: Human TLR7 reporter gene agonistic activity assay; assay type: cell-based; design: host or cells: HEK293 (TLR7/NF-κB/SEAPorter)
T1 sequence (Q9NYK1 27-1049): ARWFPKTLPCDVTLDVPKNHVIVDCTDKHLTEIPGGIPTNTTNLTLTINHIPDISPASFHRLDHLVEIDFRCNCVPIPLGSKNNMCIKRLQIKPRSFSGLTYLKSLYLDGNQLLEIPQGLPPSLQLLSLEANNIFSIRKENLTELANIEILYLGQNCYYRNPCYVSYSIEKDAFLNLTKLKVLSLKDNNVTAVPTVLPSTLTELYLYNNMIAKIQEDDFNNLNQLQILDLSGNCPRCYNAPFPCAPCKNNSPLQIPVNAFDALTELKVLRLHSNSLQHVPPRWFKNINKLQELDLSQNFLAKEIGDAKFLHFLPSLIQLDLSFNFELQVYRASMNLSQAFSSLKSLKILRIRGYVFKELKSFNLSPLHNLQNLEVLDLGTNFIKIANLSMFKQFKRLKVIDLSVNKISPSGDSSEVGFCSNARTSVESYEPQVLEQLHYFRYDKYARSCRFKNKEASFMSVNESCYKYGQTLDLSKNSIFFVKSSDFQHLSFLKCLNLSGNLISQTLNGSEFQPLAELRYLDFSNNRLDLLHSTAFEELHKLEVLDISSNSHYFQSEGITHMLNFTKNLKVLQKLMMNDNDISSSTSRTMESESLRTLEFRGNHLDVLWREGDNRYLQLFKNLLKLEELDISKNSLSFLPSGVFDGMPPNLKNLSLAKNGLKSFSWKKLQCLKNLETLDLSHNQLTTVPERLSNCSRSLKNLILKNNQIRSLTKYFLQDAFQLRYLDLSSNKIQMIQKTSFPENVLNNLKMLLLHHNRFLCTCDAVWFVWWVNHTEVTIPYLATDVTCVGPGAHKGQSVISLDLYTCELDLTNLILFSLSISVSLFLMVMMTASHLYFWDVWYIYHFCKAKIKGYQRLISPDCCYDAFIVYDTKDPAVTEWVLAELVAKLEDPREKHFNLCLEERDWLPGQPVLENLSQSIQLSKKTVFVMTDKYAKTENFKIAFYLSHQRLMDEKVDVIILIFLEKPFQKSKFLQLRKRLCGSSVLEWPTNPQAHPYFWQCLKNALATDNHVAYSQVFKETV
Protocol: Compounds were dissolved in dimethyl sulfoxide. Before stimulation with compound, Human TLR7 reporter cell line (Novus Biological) was seeded in 96-well microtiter plate (AGC techno glass) at 5 × 10^4 cells/well in DMEM (GIBCO) with 10% fetal bovine serum (GIBCO), and 10 ug/ml Blastcidin S HCl (GIBCO) and incubated at 37 °C in 5% CO2. The plates were incubated over-night and then stimulated with various concentrations of compound and R848. The plates were then incubated an additional 20 ± 1 h at 37 °C in 5% CO2 and then the secreted embryonic alkaline phosphatase (SEAP) activity was measured as activation of human TLR7. The SEAP activity was evaluated as follows: pNPP (Invitrogen, USA) was added to the incubated sample (50 μl/well); after 15 min, 4 M sodium hydroxide solution (nacalai tesque, Japan) was added thereto (50 μl/well) to quench the reaction; and the absorbance of each sample was measured at 405 nm with microplate reader SpectraMax M4 (Molecular Devices, USA).

[2] = test system: TLR7; experiment: Glutaraldehyde crosslinking assay of ligand-induced TLR7 dimerization; assay type: biochemical, Monkey (Macaca mulatta)
Protocol: The recombinant TLR7 proteins expressed in Drosophila S2 cells (Thermo Fisher Scientific) using Monkey (Macaca mulatta) TLR7 extracellular domain expression construct with N167Q, N399Q, N488Q and N799Q mutations and cleavable Z-loop and C-terminal protein A tag were prepared and were stored in a buffer containing 10 mM Tris-HCl pH 7.5 and 150 mM NaCl at concentrations of 10–15 mg ml^−1. Briefly, the purification steps included IgG affinity purification, the Z-loop and the protein A tag cleavage, and gel-filtration chromatography. Glycan-trimmed TLR7 proteins, expressed in the presence of 1.5 mg l^−1 kifunensine (Glycosyn) and treated by Endo Hf (New England Biolabs) were used for crystallization. Glycan-untrimmed proteins were used in ITC analysis, crosslinking assay, negative-staining EM and cryo-EM (200 kV microscopes) analyses. Glycan-trimmed TLR7 proteins with partially-uncleaved protein A tag were used for cryo-EM analysis using Tatan Krios (Supplementary Fig. 11).
For glutaraldehyde crosslinking assay (Fig. 2b), proteins were buffer exchanged into a buffer containing 10 mM HEPES-NaOH, pH 8.0, 150 mM NaCl and were concentrated to ~13 mg/ml using Amicon Ultra devices (Merck). Protein concentrations were adjusted to 25 µM using buffers containing 10 mM HEPES-NaOH, pH 7.0, 150 mM NaCl (for neutral condition) or 50 mM citrate-NaOH pH 5.0, 150 mM NaCl (for acidic condition). Cpd-3, Cpd-6 or Cpd-7 were added to final concentrations of 100 or 1000 µM. The reactions were started by adding glutaraldehyde (Wako) to a final concentration of 5 mM (for neutral condition) or 20 mM (for acidic condition), incubated at ambient temperature for 25 min and quenched by adding Tris-HCl pH 7.5 to a final concentration of 100 mM. Crosslinked samples were analyzed by non-reducing SDS-PAGE. Quantitative analysis of the SDS-PAGE gel image was performed with Image-J.

[3] = pH 5.0, ligand + (100 or 1000 µM used)
[4] = pH 5.0, ligand ++ (100 or 1000 µM used)
[5] = pH 7.0, ligand + (100 or 1000 µM used)
[6] = pH 7.0, ligand ++ (100 or 1000 µM used)

activation of human TLR7, reporter signal ([1]; compound 0.001 nM (as headed)) | activation of human TLR7, reporter signal ([1]; compound 0.003 nM (as headed)) | activation of human TLR7, reporter signal ([1]; compound 0.01 nM (as headed)) | activation of human TLR7, reporter signal ([1]; compound 0.03 nM (as headed)) | activation of human TLR7, reporter signal ([1]; compound 0.1 nM (as headed)) | activation of human TLR7, reporter signal ([1]; compound 0.3 nM (as headed)) | activation of human TLR7, reporter signal ([1]; compound 1 nM (as headed)) | activation of human TLR7, reporter signal ([1]; compound 3 nM (as headed)) | activation of human TLR7, reporter signal ([1]; compound 10 nM (as headed)) | activation of human TLR7, reporter signal ([1]; compound 30 nM (as headed)) | activation of human TLR7, reporter signal ([1]; compound 100 nM (as headed)) | Structure (SMILES) | ligand-induced TLR7 dimerization ([2]; neutral or acidic pH) | Band intensity Dimer [2, 3] | Band intensity Monomer [2, 3] | Band intensity Dimer [2, 4] | Band intensity Monomer [2, 4] | Band intensity Dimer [2, 5] | Band intensity Monomer [2, 5] | Band intensity Dimer [2, 6] | Band intensity Monomer [2, 6]
-0.0355 | -0.0898 | -0.0215 | 0.2447 | 1.76 | 3.124 | 3.25 | 3.172 | 3.25 | 3.234 | 3.25 | CCOCc1nc2c(N)nc3ccccc3c2n1CC(C)(C)O [R848, reference compound] | – | – | – | – | – | – | – | – | –
– | – | – | – | – | – | – | – | – | – | – | COCCOc1nc(N)c2[nH]c(=O)n(Cc3cccnc3)c2n1 [Cpd-3] | induced almost complete dimerization under both neutral and acidic conditions | 16031.2 | 5165.8 | 16425.6 | 4634.68 | 17958.5 | 7371.24 | 17537.6 | 7105.24
